Measured values taken from PMC4409382, “Structural Analysis of the 14-3-3ζ/Chibby Interaction Involved in Wnt/β-Catenin Signaling” (PLoS ONE, 2015).
Residue numbers refer to the chain shown, from its start. Square brackets hold non-standard residues; d marks the D form. Peptide text beside a SMILES is read from it. pS = N[C@@H](COP(=O)(O)O)C(=O)O

Tests used:
Format in all cases: binding
14-3-3ζ = molecular target: T1, 14-3-3ζ (Homo sapiens, UniProt P63104); experiment: ITC of Cby peptides titrated into 14-3-3ζ; conditions: for Kd: 25°C (298.15 K); for n (binding stoichiometry of monomeric 14-3-3 and Cby peptide): 25°C; for T∆S / ∆G / ∆H / TΔS / ΔG / ΔH: 298.15 K; for T∆S / ∆G / ∆H: duplicate set (S1 Table); for TΔS / ΔG / ΔH: pH 6.8, Table 1 set of duplicate experiments
T1 construct: Both full-length 14-3-3ζ and 14-3-3ζΔC12 were expressed as N-terminally His-tagged protein; His tag (TEV-cleavable) (N, cleaved yes); made in house; host or cells: Escherichia coli BL21 (DE3) pLysS
T1 sequence (P63104 1-245): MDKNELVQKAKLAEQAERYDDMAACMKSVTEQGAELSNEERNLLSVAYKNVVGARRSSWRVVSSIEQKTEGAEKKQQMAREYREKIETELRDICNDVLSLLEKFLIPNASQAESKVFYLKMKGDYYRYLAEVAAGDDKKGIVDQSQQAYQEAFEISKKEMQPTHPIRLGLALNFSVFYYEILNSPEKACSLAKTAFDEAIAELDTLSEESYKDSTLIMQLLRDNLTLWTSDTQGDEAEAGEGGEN
Text: (§1) The human14-3-3ζ ORF purchased from GeneCopoeia was transferred into Gateway pDEST17 vector (Invitrogen). The 14-3-3ζΔC12, where the 12 C-terminal residues were deleted, was then generated from the full-length construct using QuikChange II Site-Directed Mutagenesis Kit (Strategene). Both full-length 14-3-3ζ and 14-3-3ζΔC12 were expressed as N-terminally His-tagged protein in Escherichia coli (E. coli) BL21 (DE3) pLysS in M9 medium. For unlabeled protein, protein expression was induced at an O.D.600 of 0.9 by adding 0.75 mM IPTG at 18°C for 24 h. The ^15N, ^13C, ^2H labeled 14-3-3ζΔC12 was produced by growing E. coli in deuterated M9 medium. Cells adapted to 70% D2O were used to inoculate a 1 L culture of M9 prepared in 100% D2O. Cells were grown at 37°C and overexpression was induced at an O.D.600 of 0.6 with 0.75 mM IPTG. After a 60-h induction at 18°C, the cells were harvested. All 14-3-3ζ constructs used in this study were purified from the crude lysate by affinity chromatography using Ni Sepharose Fast Flow beads (Amersham Biosciences). The tag was then cleaved by overnight incubation with His-tagged tobacco etch virus (TEV) protease at 25°C. The cleaved 14-3-3ζ, which retains an N-terminal glycine, was purified by passing the mixture through Ni Sepharose Fast Flow beads. The final yields for the 14-3-3ζ proteins were ~50 mg per L of M9 media (including deuterated media).
(§2) The Cby peptides used in this study were purchased from GenScript USA Inc. and the TUFTS University Core Facility. From GenScript USA Inc.: Cby 13-mer (NH2-^12KTPPRKSASLSNL^24-COOH), Cby S20D 13-mer (NH2-^12KTPPRKSADLSNL^24-COOH), Cby S20E 13-mer (NH2-^12KTPPRKSAELSNL^24-COOH), pCby 13-mer (NH2-^12KTPPRKSApSLSNL^24-COOH) and pCby 18-mer ((NH2-^12KTPPRKSApSLSNLHSLDR^29-COOH). From TUFTS: pCby 7-mer (Ac-^16RKSApSLS^22-NH2), pCby 11-mer (NH2-^12KTPPRKSApSLS^22-NH2), pCby S22P 7-mer (Ac-^16RKSApSLP^22-NH2), pCby S22P 13-mer (NH2-^12KTPPRKSApSLPNL^24-COOH) and pCby S22P 18-mer ([…]). Peptides were dissolved and dialyzed in 50 mM sodium phosphate, 100 mM NaCl at pH 6.8 for ITC and NMR experiments.
(§3) ITC experiments were performed on a VP-ITC instrument (MicroCal) at 25°C. The protein and peptide samples were dialyzed into a buffer containing 50 mM sodium phosphate, 100 mM NaCl, 1 mM DTT at pH 6.8 and degassed before the experiments. In a typical experiment, 5 μL aliquots of ~1–2 mM peptide were titrated stepwise into the 1.4 mL sample cell containing ~100–200 μM 14-3-3ζ. The association constant (Ka), molar binding stoichiometry (n) and the binding enthalpy (ΔH), entropy (ΔS) and Gibbs free energy (ΔG) were determined by fitting the binding isotherm to a one-site model with MicroCal Origin7 software. All ITC experiments were performed in duplicate. A duplicate set of thermodynamic derived binding parameters are found in S1 Table. Peptide and protein concentrations were determined from amino acid analysis (Amino Acid Analysis Facility, SickKids, Toronto, ON).

14-3-3ζΔC12 = molecular target: T2, 14-3-3ζΔC12 (Homo sapiens, UniProt P63104); experiment: ITC of Cby peptides titrated into 14-3-3ζΔC12; conditions: 14-3-3ζΔC12 in ITC cell; for n (binding stoichiometry of monomeric 14-3-3 and Cby peptide): 25°C
T2 construct: The 14-3-3ζΔC12, where the 12 C-terminal residues were deleted, was then generated from the full-length construct; His tag (TEV-cleavable) (N, cleaved yes); made in house; host or cells: Escherichia coli BL21 (DE3) pLysS
T2 sequence (P63104 1-233 limits assumed): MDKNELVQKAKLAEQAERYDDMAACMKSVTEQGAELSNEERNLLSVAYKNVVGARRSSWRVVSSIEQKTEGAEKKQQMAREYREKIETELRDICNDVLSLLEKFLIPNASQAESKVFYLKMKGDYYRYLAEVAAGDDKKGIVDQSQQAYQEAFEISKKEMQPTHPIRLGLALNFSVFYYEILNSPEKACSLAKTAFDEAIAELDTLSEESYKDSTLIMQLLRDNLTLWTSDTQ
Text: as §1, §2, §3

14-3-3ζ K49A = molecular target: T3, 14-3-3ζ K49A (Homo sapiens, UniProt P63104, K49A); experiment: ITC of Cby peptides titrated into 14-3-3ζ K49A; conditions: for n (binding stoichiometry of monomeric 14-3-3 and Cby peptide) / TΔS / ΔG / ΔH / T∆S / ∆G / ∆H: 14-3-3ζ K49A in ITC cell; for n (binding stoichiometry of monomeric 14-3-3 and Cby peptide): 25°C, pH 6.8; for TΔS / ΔG / ΔH / T∆S / ∆G / ∆H: 298.15 K; for ΔΔG of binding, 14-3-3ζ K49A compared to WT 14-3-3ζ / effect of 14-3-3ζ K49A mutation on binding affinity (fold reduction): ITC; for ΔΔG of binding, 14-3-3ζ K49A compared to WT 14-3-3ζ: 18-mer peptides; for effect of 14-3-3ζ K49A mutation on binding affinity (fold reduction): versus WT 14-3-3ζ
T3 construct: His tag (TEV-cleavable) (N, cleaved yes); made in house
T3 sequence (P63104 1-245 K49A): T1 sequence (P63104 1-245) with K49A
Text: In numerous crystal structures of 14-3-3 proteins in complex with phosphorylated S/T peptides, the conserved K49 (numbering refers to the ζ isoform) side-chain is observed forming a hydrogen bond with the phosphate group on pS/pT (illustrated in S3 Fig with an elucidated 14-3-3ζ/Raf1 structure). With Cby’s S22 side-chain juxtaposed between 14-3-3ζ residues K49 and R56, the K49 side-chain is sterically hindered from contacting pS20. As such, we speculated that the increases in binding affinity to 14-3-3ζ observed for the S22P mutant peptides might be the result of the favorable contacts between K49 and pS20 facilitated by the proline-induced conformational changes. To test this, a K49A mutation was introduced into 14-3-3ζ and ITC titrations were performed with 18-mer WT and S22P Cby peptides.
as §2, §3

[1] = 50 mM sodium phosphate, 100 mM NaCl, 1 mM DTT, pH 6.8, one-site model, Table 1 set of duplicate experiments
[2] = pH 6.8, duplicate set (S1 Table)
[3] = pH 6.8, Table 1 set of duplicate experiments
[4] = 298.15 K, Table 1 set of duplicate experiments
[5] = 298.15 K, duplicate set (S1 Table)
[6] = Table 1 set of duplicate experiments

| n (binding stoichiometry of monomeric 14-3-3 and Cby peptide) (14-3-3ζ; [1]) | n (binding stoichiometry of monomeric 14-3-3 and Cby peptide) (14-3-3ζ; [2]) | T∆S (14-3-3ζ) [kcal/mol] | ∆G (14-3-3ζ) [kcal/mol] | ∆H (14-3-3ζ) [kcal/mol] | TΔS (14-3-3ζ) [kcal/mol] | ΔG (14-3-3ζ) [kcal/mol] | ΔH (14-3-3ζ) [kcal/mol] | n (binding stoichiometry of monomeric 14-3-3 and Cby peptide) (14-3-3ζΔC12; [3]) | n (binding stoichiometry of monomeric 14-3-3 and Cby peptide) (14-3-3ζΔC12; [2]) | TΔS (14-3-3ζΔC12; [4]) [kcal/mol] | ΔG (14-3-3ζΔC12; [4]) [kcal/mol] | ΔH (14-3-3ζΔC12; [4]) [kcal/mol] | T∆S (14-3-3ζΔC12; [5]) [kcal/mol] | ∆G (14-3-3ζΔC12; [5]) [kcal/mol] | ∆H (14-3-3ζΔC12; [5]) [kcal/mol] | n (binding stoichiometry of monomeric 14-3-3 and Cby peptide) (14-3-3ζ K49A; [6]) | n (binding stoichiometry of monomeric 14-3-3 and Cby peptide) (14-3-3ζ K49A; duplicate set (S1 Table)) | TΔS (14-3-3ζ K49A; [6]) [kcal/mol] | ΔG (14-3-3ζ K49A; [6]) [kcal/mol] | Compound | other results |
| --- | --- | --- | --- | --- | --- | --- | --- | --- | --- | --- | --- | --- | --- | --- | --- | --- | --- | --- | --- | --- | --- |
| 1.00 | 1.07 | 4.07 | -6.67 ± 0.02 | -2.60 ± 0.03 | 3.97 | -6.60 ± 0.02 | -2.63 ± 0.02 | 0.99 | 1.06 | 4.50 | -6.58 ± 0.04 | -2.08 ± 0.03 | 4.52 | -6.60 ± 0.02 | -2.08 ± 0.03 | – | – | – | – | CC(C)C[C@H](NC(=O)[C@H](CC(N)=O)NC(=O)[C@H](CO)NC(=O)[C@H](CC(C)C)NC(=O)[C@H](COP(=O)(O)O)NC(=O)[C@H](C)NC(=O)[C@H](CO)NC(=O)[C@H](CCCCN)NC(=O)[C@H](CCCNC(=N)N)NC(=O)[C@@H]1CCCN1C(=O)[C@@H]1CCCN1C(=O)[C@@H](NC(=O)[C@@H](N)CCCCN)[C@@H](C)O)C(=O)O [Cby 13-mer] (H-KTPPRKSA[pS]LSNL-OH) | Kd (14-3-3ζ; 50 mM sodium phosphate, 100 mM NaCl, 1 mM DTT, pH 6.8, duplicate set (S1 Table)): 12.8 ± 0.5 µM; Kd (14-3-3ζ; [1]): 14.5 ± 0.6 µM; Kd (14-3-3ζΔC12; 298.15 K, pH 6.8, duplicate set (S1 Table)): 14.5 ± 0.6 µM |
| 1.05 | 1.08 | 0.79 | -8.76 ± 0.02 | -7.97 ± 0.01 | 0.76 | -8.79 ± 0.02 | -8.03 ± 0.02 | – | – | – | – | – | – | – | – | 1.07 | 0.97 | 0.67 | -7.80 ± 0.06 | CC(C)C[C@H](NC(=O)[C@H](CO)NC(=O)[C@H](Cc1c[nH]cn1)NC(=O)[C@H](CC(C)C)NC(=O)[C@H](CC(N)=O)NC(=O)[C@@H]1CCCN1C(=O)[C@H](CC(C)C)NC(=O)[C@H](COP(=O)(O)O)NC(=O)[C@H](C)NC(=O)[C@H](CO)NC(=O)[C@H](CCCCN)NC(=O)[C@H](CCCNC(=N)N)NC(=O)[C@@H]1CCCN1C(=O)[C@@H]1CCCN1C(=O)[C@@H](NC(=O)[C@@H](N)CCCCN)[C@@H](C)O)C(=O)N[C@@H](CC(=O)O)C(=O)N[C@@H](CCCNC(=N)N)C(=O)O [Cby 18-mer S22P] (H-KTPPRKSA[pS]LPNLHSLDR-OH) | fold tighter binding than the S22P 7-mer (14-3-3ζ): ~ 9 fold; ΔH (14-3-3ζ K49A; [6]): -7.13 ± 0.03 kcal/mol; T∆S (14-3-3ζ K49A; duplicate set (S1 Table)): 1.17 kcal/mol; ∆G (14-3-3ζ K49A; duplicate set (S1 Table)): -7.84 ± 0.03 kcal/mol; ∆H (14-3-3ζ K49A; duplicate set (S1 Table)): -6.67 ± 0.04 kcal/mol; ΔΔG of binding, 14-3-3ζ K49A compared to WT 14-3-3ζ (14-3-3ζ K49A): ~ 1.0 kcal/mol; effect of 14-3-3ζ K49A mutation on binding affinity (fold reduction) (14-3-3ζ K49A): ~ 5 fold |
| 0.96 | 0.94 | 2.91 | -7.24 ± 0.04 | -4.33 ± 0.06 | 2.93 | -7.28 ± 0.03 | -4.35 ± 0.05 | 1.04 | 1.02 | 3.70 | -7.05 ± 0.03 | -3.35 ± 0.06 | 3.77 | -6.92 ± 0.03 | -3.15 ± 0.04 | 1.01 | 1.07 | 3.23 | -7.39 ± 0.05 | CC(C)C[C@H](NC(=O)[C@H](COP(=O)(O)O)NC(=O)[C@H](C)NC(=O)[C@H](CO)NC(=O)[C@H](CCCCN)NC(=O)[C@H](CCCNC(=N)N)NC(=O)[C@@H]1CCCN1C(=O)[C@@H]1CCCN1C(=O)[C@@H](NC(=O)[C@@H](N)CCCCN)[C@@H](C)O)C(=O)N[C@@H](CO)C(=O)N[C@@H](CC(N)=O)C(=O)N[C@@H](CC(C)C)C(=O)N[C@@H](Cc1c[nH]cn1)C(=O)N[C@@H](CO)C(=O)N[C@@H](CC(C)C)C(=O)N[C@@H](CC(=O)O)C(=O)N[C@@H](CCCNC(=N)N)C(=O)O [Cby 18-mer] (H-KTPPRKSA[pS]LSNLHSLDR-OH) | greater affinity compared to the Cby 7-mer (fold, in words) (14-3-3ζ): nine-fold; ΔH (14-3-3ζ K49A; [6]): -4.16 ± 0.05 kcal/mol; T∆S (14-3-3ζ K49A; duplicate set (S1 Table)): 3.41 kcal/mol; ∆G (14-3-3ζ K49A; duplicate set (S1 Table)): -7.17 ± 0.06 kcal/mol; ∆H (14-3-3ζ K49A; duplicate set (S1 Table)): -3.76 ± 0.07 kcal/mol; ΔΔG of binding, 14-3-3ζ K49A compared to WT 14-3-3ζ (14-3-3ζ K49A): ~ 0.1 kcal/mol; effect of 14-3-3ζ K49A mutation on binding affinity (fold reduction) (14-3-3ζ K49A): does not affect |
